According to PubChem BioAssay AID330 (DTP/NCI, 2004):
Several values for one entry are separate records, joined by “and”; a condition that tells them apart may be missing. Equal values may be shown once. Toxic doses and inconclusive results are not listed. Rule for the calls: active = survival T/C of 150% or more; inactive = T/C below 125% in these data.

Tested on: P388 leukemia ip, CD2F1 mice, survival T/C
Assay: NCI In Vivo Anticancer Drug Screen. Data for tumor model P388 Leukemia (intraperitoneal) in CD2F1 (CDF1) mice
Conditions: endpoint: median survival time, higher = longer survival
Summary of the method: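 Mice carrying the transplanted tumor received test compound or vehicle. Survival was recorded in each group, and the value is the treated-group measurement divided by that of the vehicle-treated control group.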

[1] = dose: 50.0 mg/kg/injection, schedule: Q01DX005 (ip), vehicle: saline with Tween-80
[2] = dose: 100.0 mg/kg/injection, schedule: Q01DX005 (ip), vehicle: saline with Tween-80
[3] = dose: 200.0 mg/kg/injection, schedule: Q01DX005 (ip), vehicle: saline with Tween-80
[4] = dose: 50.0 mg/kg/injection, schedule: Q01DX009 (ip), vehicle: saline with Tween-80
[5] = dose: 100.0 mg/kg/injection, schedule: Q01DX009 (ip), vehicle: saline with Tween-80
[6] = dose: 200.0 mg/kg/injection, schedule: Q01DX009 (ip), vehicle: saline with Tween-80
[7] = dose: 60.0 mg/kg/injection, schedule: Q01DX005 (ip), vehicle: saline with Tween-80
[8] = dose: 120.0 mg/kg/injection, schedule: Q01DX005 (ip), vehicle: saline with Tween-80
[9] = dose: 240.0 mg/kg/injection, schedule: Q01DX005 (ip), vehicle: saline with Tween-80
[10] = dose: 100.0 mg/kg/injection, schedule: Q01DX001 (ip), vehicle: Klucel (hydroxypropylcellulose) (HPC)
[11] = dose: 200.0 mg/kg/injection, schedule: Q01DX001 (ip), vehicle: Klucel (hydroxypropylcellulose) (HPC)
[12] = dose: 400.0 mg/kg/injection, schedule: Q01DX001 (ip), vehicle: Klucel (hydroxypropylcellulose) (HPC)
[13] = dose: 50.0 mg/kg/injection, schedule: Q01DX009 (ip), vehicle: Klucel (hydroxypropylcellulose) (HPC)
[14] = dose: 100.0 mg/kg/injection, schedule: Q01DX009 (ip), vehicle: Klucel (hydroxypropylcellulose) (HPC)
[15] = dose: 200.0 mg/kg/injection, schedule: Q01DX009 (ip), vehicle: Klucel (hydroxypropylcellulose) (HPC)
[16] = dose: 60.0 mg/kg/injection, schedule: Q01DX005 (ip), vehicle: Klucel (hydroxypropylcellulose) (HPC)
[17] = dose: 120.0 mg/kg/injection, schedule: Q01DX005 (ip), vehicle: Klucel (hydroxypropylcellulose) (HPC)

Measured: T/C

CCN1CCCC(=O)C1
inactive: [1] 96 % of control | [2] 101 % of control | [3] 102 % of control

COc1ccc(S(=O)(=O)N(C)/N=C/C(=O)O)cc1
inactive: dose: 12.5 mg/kg/injection, schedule: Q01DX005 (ip), vehicle: distilled water + Tween-80 100 % of control | dose: 25.0 mg/kg/injection, schedule: Q01DX005 (ip), vehicle: distilled water + Tween-80 106 % of control | dose: 50.0 mg/kg/injection, schedule: Q01DX005 (ip), vehicle: distilled water + Tween-80 106 % of control | dose: 100.0 mg/kg/injection, schedule: Q01DX005 (ip), vehicle: distilled water + Tween-80 95 % of control | dose: 200.0 mg/kg/injection, schedule: Q01DX005 (ip), vehicle: distilled water + Tween-80 97 % of control | dose: 200.0 mg/kg/injection, schedule: Q01DX005 (ip), vehicle: water 106 % of control | dose: 400.0 mg/kg/injection, schedule: Q01DX005 (ip), vehicle: water 102 % of control

CC(C)(C)OCC(NC(=O)OC(C)(C)C)C(=O)O (configuration not stated)
inactive: [1] 100 % of control | [2] 103 % of control | [3] 97 % of control

O=c1ccn2c(n1)SC(c1ccccc1)C2 (configuration not stated)
inactive: [4] 100 % of control | [5] 98 % of control | [6] 100 % of control

O=C(c1ccccc1)C1(c2ccccc2)CCCCC1
inactive: [7] 94 % of control | [8] 94 % of control | [9] 86 % of control

O=C1C2=C(OCCO2)C(=O)C2=C1OCO2
inactive: [7] 109 % of control | [8] 107 % of control | [9] 88 % of control

O=C(c1ccccc1)C(O)NC(=S)c1cccnc1 (configuration not stated)
inactive: [4] 106 % of control | [5] 107 % of control | [6] 116 % of control

COc1cc(OC)cc(C2(C(=O)[C@@H]3OC(C)(C)OC3C)SCCCS2)c1 (some centres not stated)
inactive: [10] 98 % of control | [11] 94 % of control | [12] 90 % of control

CC(C)OC(CCC#N)c1ccc(Cl)cc1 (configuration not stated)
inactive: dose: 50.0 mg/kg/injection, schedule: Q04DX003 (ip), vehicle: other 105 % of control | dose: 100.0 mg/kg/injection, schedule: Q04DX003 (ip), vehicle: other 114 % of control | dose: 200.0 mg/kg/injection, schedule: Q04DX003 (ip), vehicle: other 99 % of control

Cc1cc(=O)[nH]c2c3sc4ccccc4c(=O)c3c3ccccc3c12
inactive: dose: 12.5 mg/kg/injection, schedule: Q04DX003 (ip), vehicle: Klucel (hydroxypropylcellulose) (HPC) 99 % of control | dose: 25.0 mg/kg/injection, schedule: Q04DX003 (ip), vehicle: Klucel (hydroxypropylcellulose) (HPC) 99 % of control | dose: 50.0 mg/kg/injection, schedule: Q04DX003 (ip), vehicle: Klucel (hydroxypropylcellulose) (HPC) 95 % of control | dose: 100.0 mg/kg/injection, schedule: Q04DX003 (ip), vehicle: Klucel (hydroxypropylcellulose) (HPC) 98 % of control

Cc1ccc(C(=O)CS(=O)(=O)c2ccc(C)cc2)cc1
inactive: [13] 101 % of control | [14] 98 % of control | [15] 96 % of control

COC(=O)C1CCC2C(C1)OC1(CC(OC(=O)/C=C/c3ccccc3)C(C)CO1)C21CO1 (configuration not stated)
inactive: dose: 3.0 mg/kg/injection, schedule: Q01DX005 (ip), vehicle: saline + alcohol 100 % of control | dose: 5.0 mg/kg/injection, schedule: Q01DX009 (ip), vehicle: saline + alcohol 95 % of control | dose: 6.0 mg/kg/injection, schedule: Q01DX005 (ip), vehicle: saline + alcohol 97 % of control | dose: 10.0 mg/kg/injection, schedule: Q01DX009 (ip), vehicle: saline + alcohol 106 % of control | dose: 12.0 mg/kg/injection, schedule: Q01DX005 (ip), vehicle: saline + alcohol 97 % of control | dose: 20.0 mg/kg/injection, schedule: Q01DX009 (ip), vehicle: saline + alcohol 103 % of control | dose: 24.0 mg/kg/injection, schedule: Q01DX005 (ip), vehicle: saline + alcohol 99 % of control | dose: 40.0 mg/kg/injection, schedule: Q01DX009 (ip), vehicle: saline + alcohol 103 % of control

COc1ccc(N2C(=O)C(C)SC23C(=O)Nc2ccccc23)cc1 (configuration not stated)
inactive: [7] 99 % of control | [8] 100 % of control | [9] 98 % of control

COc1cc(-c2n[nH]c(=O)o2)cc(OC)c1OC
inactive: [13] 105 % of control | [14] 100 % of control | [15] 105 % of control

CC(=O)c1ccn[nH]1
inactive: [1] 98 % of control | [2] 99 % of control | [3] 110 % of control

CCOC(=O)/C(C#N)=C(\C)c1ccccc1
inactive: [4] 99 % of control

Cn1ncc(=O)[nH]c1=O
inactive: dose: 50.0 mg/kg/injection, schedule: Q01DX005 (ip), vehicle: Klucel (hydroxypropylcellulose) (HPC) 103 % of control | dose: 100.0 mg/kg/injection, schedule: Q01DX005 (ip), vehicle: Klucel (hydroxypropylcellulose) (HPC) 98 % of control | dose: 200.0 mg/kg/injection, schedule: Q01DX005 (ip), vehicle: Klucel (hydroxypropylcellulose) (HPC) 103 % of control

S=C(NCNC(=S)c1ccncc1)c1ccncc1
inactive: [1] 100 % of control and 111 % of control | [2] 108 % of control and 120 % of control | [3] 104 % of control

CCC1(c2ccccc2)SC(=O)NC1=O (configuration not stated)
inactive: [4] 91 % of control | [5] 91 % of control | [6] 98 % of control

CCOC(=O)C1=C(c2ccccc2)Nc2ccccc2[S+]1C (configuration not stated)
inactive: dose: 15.0 mg/kg/injection, schedule: Q01DX005 (ip), vehicle: saline 99 % of control | dose: 30.0 mg/kg/injection, schedule: Q01DX005 (ip), vehicle: saline 98 % of control | dose: 60.0 mg/kg/injection, schedule: Q01DX005 (ip), vehicle: saline 98 % of control and 96 % of control

Cn1c(Cl)c(/C=N\Nc2ccc([N+](=O)[O-])cc2)c2ccccc21
inactive: dose: 50.0 mg/kg/injection, schedule: Q01DX001 (ip), vehicle: Klucel (hydroxypropylcellulose) (HPC) 89 % of control | [10] 89 % of control | [11] 100 % of control

Cc1nnc(N/N=C/c2ccc([N+](=O)[O-])o2)[nH]c1=O
inactive: dose: 6.25 mg/kg/injection, schedule: Q01DX005 (ip), vehicle: saline with Tween-80 101 % of control and 114 % of control | dose: 12.5 mg/kg/injection, schedule: Q01DX005 (ip), vehicle: saline with Tween-80 115 % of control and 118 % of control (2×)

O=C(CCl)c1ccc2ccc3c(c2c1)Nc1ccccc1S3
inactive: [13] 96 % of control | [14] 99 % of control | [15] 93 % of control

O=[N+]([O-])c1ccc(Cl)cc1C(Nc1nncs1)Nc1nncs1
inactive: [16] 107 % of control | [17] 106 % of control

CN1CCNc2c1cc(O)c1c2C(=O)c2ccccc2C1=O
inactive: [10] 101 % of control | [11] 94 % of control | [12] 98 % of control

Cc1nc(Nc2ccccc2)c(C#N)c(=O)[nH]1
inactive: [7] 86 % of control | [8] 86 % of control | [9] 86 % of control

O=C(N/N=C/c1ccccc1[O-])c1ccccc1O.O=C(N/N=C/c1ccccc1[O-])c1ccccc1O.[Fe+2]
inactive: [16] 103 % of control | [17] 108 % of control | dose: 240.0 mg/kg/injection, schedule: Q01DX005 (ip), vehicle: Klucel (hydroxypropylcellulose) (HPC) 94 % of control
